From patent US6814988B2, “Process for optimizing milk production” (Novus International, Inc., priority 1997, dated 2004)
Read-outs that look alike come from different tables or passages of the source. Each block holds one compound with its values, some of them ahead of it.

Columns and labels:
[1] = Amount of methionine hydroxy analog bypassing the rumen and available for absorption, summary of experimental evidence; assay type: in vivo, ruminant
Text: Everything considered, therefore, the amount of the hydroxy analog of methionine which bypasses the rumen and is available for absorption is between about 40% and about 55%.

[2] = female, cow, in vivo
Method: (§1) The absorption and metabolism of 2-hydroxy-4-[methylthio]butanoic acid sold by Novus International (St. Louis, Mo. under the Alimet® was measured in four lactating dairy cows fitted with rumen and duodenal T-type cannulae (10 cm distal to the pylorus). The cows were offered a basal diet of barley-based concentrate (Table I) and alfalfa hay. The concentrate was fed at a level of 1 kg for every 2.5 kg of milk produced (Table I) and access to alfalfa hay was ad libitum. In addition, cows received 30 g HMB mixed with 2 kg ground corn grain per day for six days to allow for adaptation of the rumen microflora. Cows were then fed 90 g HMB mixed with the ground corn and were administered 600 ml chromium-EDTA (3 g Cr) (Binnerts et al., “Soluble chromium indicator measured by atomic absorption in digestion experiments” Vet. Rec. (1968) page 470) into the rumen via the rumen cannula. The HMB meal was offered to the cows for 20 minutes prior to the morning feeding and any of the remaining meal was placed in the rumen via the rumen cannula.
(§2) Blood, rumen and duodenal samples were collected at 0, 1, 3, 6, 9, 12 and 24 hours post-HMB-feeding. Blood was collected by jugular veni-puncture into 2×10 ml sterile tubes (Vacutainer Brand SST tubes for serum separation, Bectin Dickenson, Rutherford, N.J.), allowed to stand for 30 minutes in an ice bath and centrifuged at 3000×g to separate the serum from cells. Serum was divided into two fractions. The first fraction was deproteinized by adding an equal volume of acetonitrile and then centrifuging to obtain the supernatant. The deproteinized serum was then frozen (−70° C.) until analysis. A second fraction was not deproteinized but directly frozen (−70° C.). Rumen fluid (100 ml) collected from several sites within the rumen was strained through four layers of cheesecloth and subsampled. The subsample (30 ml) was acidified with 6 M HCl (0.5 ml) and frozen (−40° C.). Duodenal samples collected (100 ml) were also stored frozen (−40° C.). Rumen and duodenal samples were later thawed and centrifuged at 23 000×g, 4° C., for 20 minutes to obtain the clarified supernatant. The clarified rumen and the duodenal samples were then frozen until analysis. Serum was analyzed for methionine and rumen and duodenal samples for HMB. Chromium was measured by atomic absorption spectrophotometry in rumen and duodenal samples that were diluted with an equal volume of a calcium chloride solution to yield samples with approximately 400 ppm Ca^2+ (Williams et al., “The determination of chromic oxide in faeces samples by atomic absorption spectrophotometry” J. Agric. Sci., Vol. 59 (1962) pp. 381-385).
(§3) The slope of the line from the semilogarithmic plot is equal to the fractional rate constant (K). The rate constants were calculated by linear regression of the natural logarithm of Cr and HMB concentration verses time (Table III). Regression analysis of rumen Cr concentration was performed with data for 1 to 24 hours (excluding data for 0 hour).
(§4) Regression analysis for duodenal Cr and HMB concentration included the data for 3 to 24 hours and 3 to 12 hours, respectively. Excluding the data for 1 hour simplified the analysis by omitting the delay for the translocation of digesta from the rumen to the duodenum.

[3] = Lactation study, Alimet in close-up dry period and early lactation diets (Example 2); assay type: in vivo, cows
Method: The diets (Table IV) were formulated to include Alimet® to meet the methionine requirements as determined using existing computer modeling technology (CNCPS and DAIRYLP). The diets were balanced to meet amino acid requirements and included standard feed ingredients used in dairy rations. In the absence of added Alimet®, the control diet was predicted to be first limiting in methionine. The estimated need for methionine was approximately 9 grams per day. Alimet® was added assuming an availability to the ruminant of 20%.
This study included 10 multiparous and five primiparous cows per treatment, supplemented with Alimet® for two weeks before calving and for 12 weeks of lactation. […] At peak milk yield, Alimet-fed multiparous cows produced 7.9 kg/d more FCM than unsupplemented cows (42.0 vs 34.1 kg/d). The benefits of supplying post ruminal amino acid would appear to be greatest during the close-up dry period and early lactation.

[4] = in vivo; settings: female, cow
Method: as §1, §2, §3, §4

[5] = Rumen bypass and gastrointestinal availability of HMB in rumen- and duodenum-cannulated lactating dairy cows (Example 1); settings: for Chromium Concentration: 3 g Cr into rumen
Method: as §1, §2, §3, §4

[6] = duodenal fluid, 3 to 24 hours, cow 124
[7] = duodenal fluid, 3 to 24 hours, cow 131
[8] = duodenal fluid, 3 to 24 hours, cow 133
[9] = duodenal fluid, 3 to 24 hours, cow 138
[10] = duodenal fluid, 3 to 24 hours, mean of four cows
[11] = rumen fluid, 1 to 24 hours, cow 24
[12] = rumen fluid, 1 to 24 hours, cow 131
[13] = rumen fluid, 1 to 24 hours, cow 133
[14] = rumen fluid, 1 to 24 hours, cow 138
[15] = rumen fluid, 1 to 24 hours, mean of four cows

- amount absorbed by the omasum ([1]; additional experimental evidence): about 8.8%
- amount which by-passes the rumen ([1]; experimental bypass data and field work with dairy cattle (milk response), molecular basis): at least 40%
- amount which bypasses the rumen and is available for absorption ([1]; fed in the absence of a bypass fat, molecular basis, experimental evidence to date): at least 20%
- percent of the HMB dose absorbed in the omasum [2]: 8.8%
- percent of the HMB dose bypassing the rumen fermentation [2]: 40%
- percent of the HMB dose that disappeared (was degraded) in the rumen [2]: 60%
- percent of the HMB that passed to the small intestine [2]: 31.2%
- rate constant for microbial degradation of HMB within the rumen [2]: −0.1962
- time by which rumen and duodenal HMB and serum methionine had returned to pre-dose levels [2]: ≤ 12 h
- time of peak duodenal HMB concentration [2]: 3 h
- time of peak ruminal HMB concentration [2]: 1 h
- time of peak serum methionine concentration [2]: 6 h
- HMB Concentration ([2]; 0 h): <10 µg/mL
- increase in serum methionine above pre-dose levels at the peak concentration ([2]; 6 h): 200%
- HMB Concentration ([2]; 24 h): <10 µg/mL
- bioavailability [4]: 40%
- concentration at 0 h ([4]; HMB Concentration): < 10000 ng/mL
- concentration at 24 h ([4]; HMB Concentration): < 10000 ng/mL
- concentration at 24 h ([4]; rumen concentration of HMB): < 10000 ng/mL
Compound: CSCCC(O)C(=O)O (stereo not drawn) [HMB, DL, 2-hydroxy-4-[methylthio]butanoic acid]
- more FCM than unsupplemented cows ([3]; multiparous cows at peak milk yield): 7.9 kg/day
- FCM production ([3]; multiparous cows at peak milk yield, unsupplemented 34.1): 42.0 kg/day
- milk protein content, higher than unsupplemented cows ([3]; supplemented two weeks before calving and 12 weeks of lactation): not
- milk fat content ([3]; supplemented two weeks before calving and 12 weeks of lactation, unsupplemented 3.71%): 4.01%
- fat-corrected content (FCM) production ([3]; supplemented two weeks before calving and 12 weeks of lactation, unsupplemented 29.2): 33.4 kg/day
- milk production ([3]; supplemented two weeks before calving and 12 weeks of lactation, unsupplemented 31.3): 33.9 kg/day

- Chromium Concentration ([5]; duodenal fluid, 0 h, cow 124): 1.36 µg/mL
- Chromium Concentration ([5]; duodenal fluid, 0 h, cow 131): 0.05 µg/mL
- Chromium Concentration ([5]; duodenal fluid, 0 h, cow 133): 0.05 µg/mL
- Chromium Concentration ([5]; duodenal fluid, 0 h, cow 138): 0.02 µg/mL
- Constant, linear regression of natural logarithm of Cr concentration versus time [5, 6]: 3.0038
- K (fractional rate constant), Chromium [5, 6]: −.0705
- Constant, linear regression of natural logarithm of Cr concentration versus time [5, 7]: 3.5284
- K (fractional rate constant), Chromium [5, 7]: −.1201
- Constant, linear regression of natural logarithm of Cr concentration versus time [5, 8]: 3.6342
- K (fractional rate constant), Chromium [5, 8]: −.1173
- Constant, linear regression of natural logarithm of Cr concentration versus time [5, 9]: 3.7419
- K (fractional rate constant), Chromium [5, 9]: −.1135
- Constant, linear regression of natural logarithm of Cr concentration versus time [5, 10]: 3.4771
- K (fractional rate constant), Chromium; rate constant for passage of the Cr marker to the duodenum [5, 10]: −.1053
- K (fractional rate constant), Chromium; rate constant for passage of the Cr marker to the duodenum ([5]; duodenal fluid, 3 to 24 hours, mean of four cows, listed as Cr): −0.1053
- Chromium Concentration ([5]; duodenal fluid, 1 h, cow 124): 11.69 µg/mL
- Chromium Concentration ([5]; duodenal fluid, 1 h, cow 131): 23.80 µg/mL
- Chromium Concentration ([5]; duodenal fluid, 1 h, cow 133): 12.14 µg/mL
- Chromium Concentration ([5]; duodenal fluid, 1 h, cow 138): 17.98 µg/mL
- Chromium Concentration ([5]; duodenal fluid, 3 h, cow 124): 18.30 µg/mL
- Chromium Concentration ([5]; duodenal fluid, 3 h, cow 131): 24.55 µg/mL
- Chromium Concentration ([5]; duodenal fluid, 3 h, cow 133): 25.41 µg/mL
- Chromium Concentration ([5]; duodenal fluid, 3 h, cow 138): 27.23 µg/mL
- Chromium Concentration ([5]; duodenal fluid, 6 h, cow 124): 11.99 µg/mL
- Chromium Concentration ([5]; duodenal fluid, 6 h, cow 131): 17.86 µg/mL
- Chromium Concentration ([5]; duodenal fluid, 6 h, cow 133): 18.42 µg/mL
- Chromium Concentration ([5]; duodenal fluid, 6 h, cow 138): 23.24 µg/mL
- Chromium Concentration ([5]; duodenal fluid, 9 h, cow 124): 11.00 µg/mL
- Chromium Concentration ([5]; duodenal fluid, 9 h, cow 131): 12.16 µg/mL
- Chromium Concentration ([5]; duodenal fluid, 9 h, cow 133): 16.36 µg/mL
- Chromium Concentration ([5]; duodenal fluid, 9 h, cow 138): 19.26 µg/mL
- Chromium Concentration ([5]; duodenal fluid, 12 h, cow 124): 7.89 µg/mL
- Chromium Concentration ([5]; duodenal fluid, 12 h, cow 131): 6.39 µg/mL
- Chromium Concentration ([5]; duodenal fluid, 12 h, cow 133): 7.89 µg/mL
- Chromium Concentration ([5]; duodenal fluid, 12 h, cow 138): 8.39 µg/mL
- Chromium Concentration ([5]; duodenal fluid, 24 h, cow 124): 3.88 µg/mL
- Chromium Concentration ([5]; duodenal fluid, 24 h, cow 131): 2.06 µg/mL
- Chromium Concentration ([5]; duodenal fluid, 24 h, cow 133): 2.29 µg/mL
- Chromium Concentration ([5]; duodenal fluid, 24 h, cow 138): 2.85 µg/mL
- Chromium Concentration ([5]; rumen fluid, 0 h, cow 124): 0.04 µg/mL
- Chromium Concentration ([5]; rumen fluid, 0 h, cow 131): 0.07 µg/mL
- Chromium Concentration ([5]; rumen fluid, 0 h, cow 133): 0.01 µg/mL
- Chromium Concentration ([5]; rumen fluid, 0 h, cow 138): 0.02 µg/mL
- Constant, linear regression of natural logarithm of Cr concentration versus time [5, 11]: 3.4702
- K (fractional rate constant), Chromium [5, 11]: −.0940
- Constant, linear regression of natural logarithm of Cr concentration versus time [5, 12]: 2.7330
- K (fractional rate constant), Chromium [5, 12]: −.1576
- Constant, linear regression of natural logarithm of Cr concentration versus time [5, 13]: 3.7310
- K (fractional rate constant), Chromium [5, 13]: −.1302
- Constant, linear regression of natural logarithm of Cr concentration versus time [5, 14]: 3.9905
- K (fractional rate constant), Chromium [5, 14]: −.1411
- Constant, linear regression of natural logarithm of Cr concentration versus time [5, 15]: 3.7312
- K (fractional rate constant), Chromium; rate of passage of the liquid marker from the rumen [5, 15]: −.1307
- K (fractional rate constant), Chromium; rate of passage of the liquid marker from the rumen ([5]; rumen fluid, 1 to 24 hours, mean of four cows, listed as Cr): −0.1307
- Chromium Concentration ([5]; rumen fluid, 1 h, cow 124): 31.83 µg/mL
- Chromium Concentration ([5]; rumen fluid, 1 h, cow 131): 36.27 µg/mL
- Chromium Concentration ([5]; rumen fluid, 1 h, cow 133): 40.44 µg/mL
- Chromium Concentration ([5]; rumen fluid, 1 h, cow 138): 45.51 µg/mL
- Chromium Concentration ([5]; rumen fluid, 3 h, cow 124): 23.77 µg/mL
- Chromium Concentration ([5]; rumen fluid, 3 h, cow 131): 29.11 µg/mL
- Chromium Concentration ([5]; rumen fluid, 3 h, cow 133): 34.52 µg/mL
- Chromium Concentration ([5]; rumen fluid, 3 h, cow 138): 37.05 µg/mL
- Chromium Concentration ([5]; rumen fluid, 6 h, cow 124): 19.29 µg/mL
- Chromium Concentration ([5]; rumen fluid, 6 h, cow 131): 18.09 µg/mL
- Chromium Concentration ([5]; rumen fluid, 6 h, cow 133): 16.62 µg/mL
- Chromium Concentration ([5]; rumen fluid, 6 h, cow 138): 27.94 µg/mL
- Chromium Concentration ([5]; rumen fluid, 9 h, cow 124): 12.93 µg/mL
- Chromium Concentration ([5]; rumen fluid, 9 h, cow 131): 8.89 µg/mL
- Chromium Concentration ([5]; rumen fluid, 9 h, cow 133): 10.79 µg/mL
- Chromium Concentration ([5]; rumen fluid, 9 h, cow 138): 13.89 µg/mL
- Chromium Concentration ([5]; rumen fluid, 12 h, cow 124): 9.16 µg/mL
- Chromium Concentration ([5]; rumen fluid, 12 h, cow 131): 5.04 µg/mL
- Chromium Concentration ([5]; rumen fluid, 12 h, cow 133): 7.86 µg/mL
- Chromium Concentration ([5]; rumen fluid, 12 h, cow 138): 8.28 µg/mL
- Chromium Concentration ([5]; rumen fluid, 24 h, cow 124): 3.62 µg/mL
- Chromium Concentration ([5]; rumen fluid, 24 h, cow 131): 1.07 µg/mL
- Chromium Concentration ([5]; rumen fluid, 24 h, cow 133): 2.08 µg/mL
- Chromium Concentration ([5]; rumen fluid, 24 h, cow 138): 1.97 µg/mL
Compound: chromium-EDTA
